Like-named read-outs stand apart in the source and are kept apart here.
Assays:
HBV = assay: HepAD38 antiviral assay: reduction of viral product accumulation (virion DNA by qPCR, HBsAg or HBeAg by ELISA); format: cell-based, hepatitis B virus; conditions: Hepatitis B virus
Outline: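 Tetracycline-free HepAD38 cells exposed to compound (DMSO stock diluted 1:200) for 5 days, or 8 days with media and compound refreshed on d2 and d5. Virion DNA quantified by qPCR after lysis; HBsAg or HBeAg measured by ELISA on diluted samples.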

[1] = Compound toxicity by ATPLite (total ATP levels); format: cell-based; conditions: human, three days after compound addition, 50% reduction of total ATP
Protocol: Methods: HepAD38 cells are maintained as previously reported (Ladner et al, Antimicrob. Agents Chemother. 1997, […], 1715). Briefly, cells are passaged upon attaining confluency in DMEM/F12 media in the presence of 10% FBS, Penn/Strep, 250 μg/mL G418, and 1 ug/ml tetracycline. Novel compounds are screened by first washing cells three times with PBS to remove tetracycline, and plating in 96 well plates at 35,000 cells/well. Compounds dissolved in DMSO are then diluted 1:200 into wells containing cells. Five days after compound addition, material is harvested for analysis. For an extended 8 days analysis, cells are plated and treated as described above, but media and compound are refreshed on d2 and d5 post initial treatment.
Compound toxicity is evaluated by seeding cells at 15,000 cells/well and treating with compound as described above.

[2] = 120 h, HepAD38 cells, five days after compound addition, 50% reduction of viral product vs no drug controls, read-out: HepAD38 EC50

Structure (SMILES) | EC50 (HBV; [2]) [µM] | other results
C[C@@H]1CN([C@H]2C3CCC2C[C@H](S(=O)(=O)c2cc(C(=O)Nc4ccc(F)c(F)c4)ccc2Cl)C3)C(=O)O1 [Example 344] | < 0.104 | CC50 at 3 days ([1]; class symbols): > 25000 nM
C[C@H](O)CNC(=O)C[C@]1(O)C2CCC1C[C@@H](S(=O)(=O)c1cc(C(=O)Nc3cc(F)c(F)c(F)c3)ccc1Cl)C2 [Example 112] | < 0.104 | CC50 at 3 days ([1]; numeric bounds): > 6250 nM
Cn1cc(C(O)[C@]2(O)C3CCC2C[C@@H](S(=O)(=O)c2cc(C(=O)Nc4ccc(F)c(F)c4)ccc2Cl)C3)cn1 (some centres unmarked) [Example 289] | < 0.104 | CC50 at 3 days ([1]; class symbols): > 25000 nM
CC(CO)NC(=O)C[C@]1(O)C2CCC1C[C@@H](S(=O)(=O)c1cc(C(=O)Nc3cc(F)c(F)c(F)c3)ccc1Cl)C2 (some centres unmarked) [Example 55] | < 0.104 | CC50 at 3 days ([1]; class symbols): > 25000 nM
[2H]C1([2H])C2C[C@]([2H])(S(=O)(=O)c3cc(C(=O)Nc4ccc(F)c(F)c4)ccc3Cl)CC(C1([2H])[2H])[C@]2(O)CO [Example 272] | < 0.104 | CC50 at 3 days ([1]; class symbols): > 25000 nM
C[C@@H](O)[C@H](O)[C@]1(O)C2CCC1C[C@@H](S(=O)(=O)c1cc(C(=O)Nc3ccc(F)c(F)c3)ccc1Cl)C2 (single isomer, unassigned) [Example 183] | < 0.104 | CC50 at 3 days ([1]; class symbols): > 25000 nM
CC(C)OC(=O)N[C@@H](C)C(=O)NC[C@]1(O)C2CCC1C[C@@H](S(=O)(=O)c1cc(C(=O)Nc3cc(F)c(F)c(F)c3)ccc1Cl)C2 [Example 70] | < 0.104 | CC50 at 3 days ([1]; class symbols): > 25000 nM
CC(O)CNC(=O)C[C@]1(O)C2CCC1C[C@@H](S(=O)(=O)c1cc(C(=O)Nc3cc(F)c(F)c(F)c3)ccc1Cl)C2 (some centres unmarked) [Example 54] | < 0.104 | CC50 at 3 days ([1]; class symbols): > 25000 nM
O=C(Nc1ccc(F)c(F)c1)c1ccc(Cl)c(S(=O)(=O)CC2CCC(O)(C(O)CO)CC2)c1 (centres unmarked) [Example 199] | > 0.2 | –
C[C@]1(O)C2CCC1C[C@@H](S(=O)(=O)c1cc(C(=O)Nc3ccc(F)c(F)c3)c(Br)cc1Cl)C2 [Example 100] | < 0.104 | –
COC(=O)N1CCCC1C(=O)NC[C@@]1(O)C2CC[C@H]1C[C@H](S(=O)(=O)c1cc(C(=O)Nc3cc(F)c(F)c(F)c3)ccc1Cl)C2 (some centres unmarked) [Example 23] | < 0.104 | –
CCCCc1cc(Cl)c(S(=O)(=O)[C@H]2CC3CCC(C2)[C@@]3(C)O)cc1C(=O)Nc1ccc(F)c(F)c1 [Example 103] | < 0.104 | –
Cc1ccnc([C@H](O)[C@@]2(O)C3CC[C@H]2C[C@H](S(=O)(=O)c2cc(C(=O)Nc4ccc(F)c(F)c4)ccc2Cl)C3)c1 [Example 296a] | < 0.104 | –
C[C@@H](CO)NC(=O)CC1(O)CC(S(=O)(=O)c2cc(C(=O)Nc3ccc(F)c(F)c3)ccc2Cl)C1 (some centres unmarked) [Example 247] | > 0.2 | –
O=C(Nc1cc(F)c(F)c(F)c1)c1ccc(Cl)c(S(=O)(=O)[C@@H]2CC3CC[C@@H](C2)[C@@]3(O)CNC(=O)[C@]2(O)CCC[C@H]2O)c1 (relative stereo) [Example 59] | 0.1 to 0.2 | –
O=C(Nc1ccc(F)c(F)c1)c1ccc(Cl)c(S(=O)(=O)[C@H]2CC3CCC(C2)[C@]3(O)[C@H](O)c2ccc(F)cn2)c1 (single isomer, unassigned) [Example 291b] | < 0.104 | –
COCCOCCOC[C@]1(O)C2CCC1C[C@@H](S(=O)(=O)c1cc(C(=O)Nc3cc(F)c(F)c(F)c3)ccc1Cl)C2 [Example 99] | < 0.104 | –
Nc1cc(NC(=O)c2ccc(Cl)c(S(=O)(=O)[C@H]3CC4CCC(C3)[C@]4(O)C(O)c3ncc[nH]3)c2)ccc1F (some centres unmarked) [Example 287] | > 0.2 | –
COC(=O)CCNC(=O)C[C@]1(O)C2CCC1C[C@@H](S(=O)(=O)c1cc(C(=O)Nc3cc(F)c(F)c(F)c3)ccc1Cl)C2 [Example 139] | > 0.2 | –
O=C(Nc1ccc(F)c(F)c1)c1ccc(Cl)c(S(=O)(=O)[C@@H]2CC3CC[C@@H](C2)[C@@]3(O)Cn2ccc(=O)[nH]c2=O)c1 [Example 305] | < 0.104 | –
O=C(Nc1ccc(F)c(F)c1)c1ccc(Cl)c(S(=O)(=O)[C@H]2CC3CCC(C2)[C@]3(O)C(O)CO)c1 (mixture of isomers) [Example 82] | < 0.104 | –
C[C@]1(O)C2CCC1C[C@@H](S(=O)(=O)c1cc(C(=O)Nc3cc(F)cc(F)c3)ccc1Cl)C2 [Example 105] | < 0.104 | –
O=C(Nc1ccc(F)c(F)c1)c1ccc(Cl)c(S(=O)(=O)[C@H]2CC3CCC(C2)[C@]3(O)C(O)c2ccccc2)c1 (some centres unmarked) [Example 283] | 0.1 to 0.2 | –
COC(=O)N[C@@H](C)C(=O)N1C2CCC1CC(S(=O)(=O)c1cc(C(=O)Nc3cc(F)c(F)c(F)c3)ccc1Cl)C2 (single isomer, unassigned) [Example 141] | – | EC50 (HBV; HePAD38, 120 h, read-out: HepAD38 EC50 (μM)): 0.1 to 0.2 µM
